Values after ≈ are worked out from the molar mass of the structure shown. Active and inactive are the calls of the source. No cut-off for these calls is given here.
Columns and labels:
physchem = details: phosphate buffer, pH 7.4
[1] = Permeability of the compound by PAMPA; assay type: ADME; details: read-out: permeability
in vitro [2] = details: human, liver microsomes
Description: Stability in human liver microsomes assessed as parent compound remaining at 1 uM measured after 30 mins in presence of NADPH by LC-MS/MS analysis

COLO 320DM [3] = assay: cells; details: Homo sapiens, 96 h
Description: Antiproliferative activity against human COLO320DM cells assessed as inhibition of cell growth measured after 4 days by CellTiter-Glo assay

[4] = Protein binding in mouse serum assessed as unbound fraction at 1 uM measured after 24 hrs by LC-MS/MS analysis; assay type: ADME, cell-free
[5] = Protein binding in human serum assessed as unbound fraction at 1 uM measured after 24 hrs by LC-MS/MS analysis; assay type: ADME, cell-free
in vitro [6] = details: mouse, liver microsomes
Description: Stability in mouse liver microsomes assessed as parent compound remaining at 1 uM measured after 30 mins in presence of NADPH by LC-MS/MS analysis

RKO [7] = assay: Antiproliferative activity against human RKO cells assessed reduction in cell viability at 0.3 uM measured after 5 days by MTT assay; assay type: functional, cell-based
[8] = target: Tankyrase 1/2 (Homo sapiens) (UniProt Q9H2K2+O95271); assay: Inhibition of TNKS/TNKS2 in human COLO320DM cells assessed as upregulation of AXIN2 expression at 0.1 uM measured after 16 hrs by Western blot analysis relative to G007-LK; assay type: cell-based
Tankyrase 1/2 = target: T1, Tankyrase 1/2 (Homo sapiens, UniProt Q9H2K2+O95271)
T1 sequence (Q9H2K2 whole entry): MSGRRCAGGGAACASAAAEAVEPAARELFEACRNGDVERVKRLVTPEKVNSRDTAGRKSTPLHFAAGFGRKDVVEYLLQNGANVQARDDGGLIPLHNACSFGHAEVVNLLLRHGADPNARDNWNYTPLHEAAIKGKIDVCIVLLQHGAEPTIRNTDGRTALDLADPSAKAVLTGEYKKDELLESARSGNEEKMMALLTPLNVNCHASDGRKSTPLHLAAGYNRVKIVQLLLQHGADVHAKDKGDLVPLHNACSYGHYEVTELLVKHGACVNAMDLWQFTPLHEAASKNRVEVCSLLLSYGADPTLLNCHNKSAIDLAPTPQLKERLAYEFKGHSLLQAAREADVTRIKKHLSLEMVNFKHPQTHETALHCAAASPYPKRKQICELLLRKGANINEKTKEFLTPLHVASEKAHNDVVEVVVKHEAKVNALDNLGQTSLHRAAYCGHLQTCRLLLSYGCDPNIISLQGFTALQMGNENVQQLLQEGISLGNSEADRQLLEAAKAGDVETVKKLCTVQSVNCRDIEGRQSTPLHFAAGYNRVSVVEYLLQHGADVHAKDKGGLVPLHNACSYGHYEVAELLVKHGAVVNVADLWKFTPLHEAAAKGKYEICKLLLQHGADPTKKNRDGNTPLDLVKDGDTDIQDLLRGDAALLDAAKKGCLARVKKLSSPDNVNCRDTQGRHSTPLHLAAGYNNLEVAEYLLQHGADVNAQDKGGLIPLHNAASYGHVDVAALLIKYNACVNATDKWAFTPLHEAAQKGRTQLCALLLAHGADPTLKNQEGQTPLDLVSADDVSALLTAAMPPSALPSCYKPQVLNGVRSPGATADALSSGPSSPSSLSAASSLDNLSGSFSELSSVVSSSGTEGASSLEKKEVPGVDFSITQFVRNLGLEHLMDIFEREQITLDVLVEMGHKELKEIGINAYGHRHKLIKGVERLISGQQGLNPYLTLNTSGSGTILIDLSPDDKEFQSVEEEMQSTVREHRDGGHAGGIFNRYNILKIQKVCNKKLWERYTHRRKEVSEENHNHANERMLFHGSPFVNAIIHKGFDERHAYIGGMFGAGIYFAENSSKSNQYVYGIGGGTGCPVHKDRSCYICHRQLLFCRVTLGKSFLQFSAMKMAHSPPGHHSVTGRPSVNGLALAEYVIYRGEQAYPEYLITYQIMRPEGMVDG
T1 sequence (O95271 whole entry): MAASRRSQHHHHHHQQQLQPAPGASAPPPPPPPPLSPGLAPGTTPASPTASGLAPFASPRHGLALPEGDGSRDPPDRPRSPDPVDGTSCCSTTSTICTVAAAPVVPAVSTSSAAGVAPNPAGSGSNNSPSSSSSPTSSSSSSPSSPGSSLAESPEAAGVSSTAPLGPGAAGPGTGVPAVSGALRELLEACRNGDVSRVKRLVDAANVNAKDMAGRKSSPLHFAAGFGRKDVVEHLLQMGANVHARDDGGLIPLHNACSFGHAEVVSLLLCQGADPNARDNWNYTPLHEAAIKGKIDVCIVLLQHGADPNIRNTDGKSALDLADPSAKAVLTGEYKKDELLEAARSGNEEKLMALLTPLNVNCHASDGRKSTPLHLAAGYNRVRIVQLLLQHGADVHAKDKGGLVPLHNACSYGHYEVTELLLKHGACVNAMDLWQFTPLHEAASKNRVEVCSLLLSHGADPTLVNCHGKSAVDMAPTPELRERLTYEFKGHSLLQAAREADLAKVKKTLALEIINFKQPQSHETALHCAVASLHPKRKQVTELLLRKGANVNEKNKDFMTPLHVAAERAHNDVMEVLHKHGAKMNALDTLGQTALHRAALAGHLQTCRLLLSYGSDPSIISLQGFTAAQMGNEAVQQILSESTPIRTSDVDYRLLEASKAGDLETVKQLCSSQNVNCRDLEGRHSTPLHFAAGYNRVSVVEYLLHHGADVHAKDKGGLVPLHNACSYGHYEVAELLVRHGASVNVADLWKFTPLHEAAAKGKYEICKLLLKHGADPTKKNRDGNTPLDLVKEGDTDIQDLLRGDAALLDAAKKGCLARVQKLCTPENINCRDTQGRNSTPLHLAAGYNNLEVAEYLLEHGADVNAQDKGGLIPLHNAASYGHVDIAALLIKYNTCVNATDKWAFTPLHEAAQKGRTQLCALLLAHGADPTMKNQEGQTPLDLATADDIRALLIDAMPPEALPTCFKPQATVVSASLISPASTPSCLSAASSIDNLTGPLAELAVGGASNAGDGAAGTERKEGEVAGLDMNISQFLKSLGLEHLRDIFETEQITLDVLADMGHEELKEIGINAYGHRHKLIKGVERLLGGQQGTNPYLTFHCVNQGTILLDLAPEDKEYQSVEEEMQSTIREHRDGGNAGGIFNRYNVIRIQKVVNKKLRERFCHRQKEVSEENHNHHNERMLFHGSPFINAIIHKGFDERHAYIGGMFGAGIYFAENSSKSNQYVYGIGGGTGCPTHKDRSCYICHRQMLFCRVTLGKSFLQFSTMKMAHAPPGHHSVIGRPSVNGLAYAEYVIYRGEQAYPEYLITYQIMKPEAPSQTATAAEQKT
Description: Inhibition of TNKS/TNKS2 (unknown origin) expressed in human DLD1 cells assessed as reduction in Wnt-signaling measured after 24 hrs by TCF-luciferase reporter gene assay

RKO [9] = assay: Antiproliferative activity against human RKO cells assessed inhibition of cell growth measured after 5 days by MTT assay; assay type: functional; details: 120 h
[10] = target: Poly [ADP-ribose] polymerase 1 (Homo sapiens, UniProt P09874)
Description: Inhibition of recombinant human PARP1 expressed in Escherichia coli assessed as reduction in auto-PARylation using histone as substrate measured after 45 mins in presence of biotinylated-NAD+ by ELISA

COLO 320DM [11] = assay: Antiproliferative activity against human COLO320DM cells assessed inhibition of cell growth measured after 5 days by MTT assay; assay type: functional; details: 120 h
[12] = target: T2, Poly [ADP-ribose] polymerase tankyrase-2 (Homo sapiens, UniProt Q9H2K2)
T2 sequence (Q9H2K2 whole entry): T1 sequence (Q9H2K2 whole entry)
Description: Inhibition of recombinant human N-terminal TEV cleavage site-fused/FLAG-poly his-tagged TNKS2 SAM-PARP domain (613 to 1166 residues) expressed in Escherichia coli assessed as reduction in auto-PARylation preincubated for 10 mins followed by biotinylated-NAD+ addition and measured after 45 mins by ELISA

[13] = target: T3, Poly [ADP-ribose] polymerase tankyrase-1 (Homo sapiens, UniProt O95271)
T3 sequence (O95271 whole entry): T1 sequence (O95271 whole entry)
Description: Inhibition of recombinant human N-terminal TEV cleavage site-fused/FLAG-poly his-tagged TNKS SAM-PARP domain (1024 to 1327 residues) expressed in Escherichia coli assessed as reduction in auto-PARylation preincubated for 10 mins followed by biotinylated-NAD+ addition and measured after 45 mins by ELISA

[14] = AUC (infinity) in ICR mouse at 50 mg/kg, ip; assay type: ADME, organism-based; parameters: dose 50 mg/kg, route intraperitoneal, time infinity; details: in vivo
[15] = Cmax in ICR mouse at 50 mg/kg, ip; assay type: ADME, organism-based; parameters: dose 50 mg/kg, route intraperitoneal; details: in vivo
[16] = Half life in ICR mouse at 50 mg/kg, ip; assay type: ADME, organism-based; details: in vivo

Chain of Poly [ADP-ribose] polymerase 1 (P09874 whole entry): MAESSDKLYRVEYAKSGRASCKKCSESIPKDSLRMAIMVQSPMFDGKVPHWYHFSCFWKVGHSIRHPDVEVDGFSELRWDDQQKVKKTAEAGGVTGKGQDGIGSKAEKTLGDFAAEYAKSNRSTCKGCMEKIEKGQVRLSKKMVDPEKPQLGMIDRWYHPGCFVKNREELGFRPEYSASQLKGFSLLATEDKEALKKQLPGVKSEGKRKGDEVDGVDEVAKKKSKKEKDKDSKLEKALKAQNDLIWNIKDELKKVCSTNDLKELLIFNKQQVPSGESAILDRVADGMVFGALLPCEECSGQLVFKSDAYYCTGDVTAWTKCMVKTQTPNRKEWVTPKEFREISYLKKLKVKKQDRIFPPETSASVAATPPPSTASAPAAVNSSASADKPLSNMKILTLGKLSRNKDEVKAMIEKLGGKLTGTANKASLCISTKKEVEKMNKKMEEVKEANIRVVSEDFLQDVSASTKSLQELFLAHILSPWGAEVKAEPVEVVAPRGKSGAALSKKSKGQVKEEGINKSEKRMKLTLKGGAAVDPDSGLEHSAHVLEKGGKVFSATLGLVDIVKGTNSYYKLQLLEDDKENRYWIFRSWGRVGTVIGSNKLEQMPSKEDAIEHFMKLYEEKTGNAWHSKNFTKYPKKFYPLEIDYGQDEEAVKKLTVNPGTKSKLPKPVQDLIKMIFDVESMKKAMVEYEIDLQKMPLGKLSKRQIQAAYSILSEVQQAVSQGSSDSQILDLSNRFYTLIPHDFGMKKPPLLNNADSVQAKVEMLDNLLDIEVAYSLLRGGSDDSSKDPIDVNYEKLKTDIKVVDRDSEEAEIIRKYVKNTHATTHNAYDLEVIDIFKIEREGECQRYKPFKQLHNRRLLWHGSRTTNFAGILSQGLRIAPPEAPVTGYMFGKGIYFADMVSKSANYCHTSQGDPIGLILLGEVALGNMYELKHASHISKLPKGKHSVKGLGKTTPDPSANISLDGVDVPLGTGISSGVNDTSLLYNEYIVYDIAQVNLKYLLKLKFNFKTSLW

Row | SMILES | solubility at 1 h, 200 µM (physchem) [µg/mL] | Papp [1] [×10⁻⁶ cm/s] | remaining at 0.5 h, 1 µM (in vitro [2]) [%] | GI50 (COLO 320DM [3]) [nM] | fraction unbound at 24 h, 1 µM [4] | Fu ([5]; 24 h, 1 µM) [%] | remaining at 0.5 h, 1 µM (in vitro [6]) [%] | Activity (RKO [7]) | fold change (FC) [8] | IC50 (Tankyrase 1/2) [nM] | GI50 (RKO [9]) [nM] | IC50 [10] [nM] | GI50 (COLO 320DM [11]) [nM] | IC50 [12] [nM] | IC50 [13] [nM] | AUC(0-inf) [14] [µM·h] | Cmax [15] [µM] | fraction unbound at 24 h, 1 µM [5] | half-life [16] [h]
1 | Oc1nc(-c2ccc(C(F)(F)F)cc2)nc2c1CSCC2 | 0.4 (≈ 1.28 µM) | 3.24 | 78.4 | 17000 | 0.086 | 0.6 | 0 | – | – | – | – | – | – | – | – | – | – | – | –
2 | O=C1N(CCO)c2cc(F)cc(F)c2C12CCN(c1nc3c(c(=O)[nH]1)CCCC3)CC2 | 76.9 (≈ 179 µM) | 7.9 | 39.5 | 2400 | 0.077 | – | 39.1 | Active | 3.93 | 79.4 | > 10000 | > 20000 | 470 | 15.1 | 10 | 106 | 48.1 | 0.017 | 3.6
3 | O=C1N(CCO)c2cccc(Cl)c2C12CCN(c1nc3c(c(=O)[nH]1)CCCC3)CC2 | 84.5 (≈ 197 µM) | 1.1 | 28.9 | 1000 | 0.042 | – | 19.1 | Active | 5.75 | 13.9 | > 10000 | > 20000 | 250 | 6.8 | 4.4 | 157 | 5.35 | 0.018 | 4.1
4 | O=c1[nH]c(N2CCC3(CC2)CN(CCO)c2cccc(Cl)c23)nc2c1CCCC2 | 2.5 (≈ 6.03 µM) | – | 6.1 | 1500 | 0.01 | – | 1.1 | Active | 4.86 | 52.9 | > 10000 | > 20000 | 300 | 17 | 16.6 | 667 | 75.6 | 0.009 | 4.8

From ChEMBL document CHEMBL4387706, “Discovery of Novel Spiroindoline Derivatives as Selective Tankyrase Inhibitors” (J Med Chem, 2019)
